Test results from article PMC10465125 (eLife, 2023).
Entries after “also recorded” stand apart in the source; their conditions may differ.

Columns and labels:
[1] = system: SARS-CoV-2 spike Vpps of different variants (alpha, beta, gamma, delta, omicron); format: cell-based
SARS-CoV-2 omicron virus = assay: microbe, parasite or virus in culture; format: cell-based

Row | Compound | suppression of entry of Vpp of beta, delta and omicron variant [1] | suppression of infection by Vpp of wild type, alpha variant, gamma variant [1] | EC50 (SARS-CoV-2 omicron virus; Severe acute respiratory syndrome coronavirus 2, Vero C1008, read-out: EC50 against omicron variant virus production) [µg/mL] | block of alpha, beta, gamma, delta, and omicron variants Vpp infection as well as wild-type Vpps [1] | EC50 against omicron variant virus production (SARS-CoV-2 omicron virus) [µg/mL]
1 | O=C1O[C@H]2[C@@H]3OC(=O)c4cc(O)c(O)c(O)c4-c4c(O)c(O)c5oc(=O)c6c(c(O)c(O)c7oc(=O)c4c5c76)-c4c(cc(O)c(O)c4O)C(=O)OC[C@H]3OC(O)[C@@H]2OC(=O)c2cc(O)c(O)c(O)c2-c2c1cc(O)c(O)c2O (mixture of isomers) [Punicalagin, punicalagin] | less potency and not | significant suppression; also recorded: potent inhibitor | 2.88 |  | 
2 | tannic acid [reference compound] |  | significant suppression |  | could block | 5.27
